From patent US10526345B2, “Compounds as GPR119 agonists” (Mankind Pharma Ltd., priority 2016, dated 2020)
pEC50: −log10 of the molar value.

target: T1, hGPR119 (Homo sapiens, UniProt Q8TDV5); assay: In vitro cyclic AMP assay (Cisbio dynamic 2 HTRF kit) in CHO-hGPR119 cells; format: cell-based; settings: 1 h, cAMP, compound at 1 μM, 60 min, read-out: Induction (% induction at 1 μM)
T1 construct: expressed in transfected cells; host or cells: CHO
T1 sequence (Q8TDV5 1-335): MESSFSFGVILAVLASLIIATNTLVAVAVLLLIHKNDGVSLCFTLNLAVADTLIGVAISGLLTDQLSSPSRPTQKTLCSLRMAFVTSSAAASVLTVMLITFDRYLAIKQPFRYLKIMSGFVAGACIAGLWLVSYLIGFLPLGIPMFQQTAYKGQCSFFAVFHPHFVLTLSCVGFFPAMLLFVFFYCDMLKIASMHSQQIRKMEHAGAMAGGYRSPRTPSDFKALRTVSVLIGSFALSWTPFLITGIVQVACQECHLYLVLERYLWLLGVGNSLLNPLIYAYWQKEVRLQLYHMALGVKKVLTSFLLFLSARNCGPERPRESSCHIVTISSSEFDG
Method: cAMP measurements were done using Cisbio dynamic 2 HTRF kit according to the manufacturer's protocol. Briefly, CHO-hGPR119 cells were plated at a cell density of 5000 cells/well/5 μl into a white small volume 384 well plate. The final concentrations of IBMX and DMSO used were 1 mM and 0.5% respectively. Cells were treated with various concentrations of the test compound for 60 min at room temperature. Cells were lysed by buffer containing Anti-cAMP antibody and d2-cAMP reagents and incubated for 1 hour at room temperature. HTRF was measured at 337 nm excitation and emission wavelengths of 665 nm and 620 nm on a microplate reader (Flurostar, BMG Labtech). Graphpad prism software was utilized for EC50 determinations.

Row | Compound | activation at 1 µM
1 | CC(C)OC(=O)Oc1nc2ccc(-c3ccc(S(C)(=O)=O)cc3)nc2s1 [Compound 1019, isopropyl (5-(4-(methylsulfonyl)phenyl)thiazolo[5,4-b]pyridin-2-yl)carbonate] | 0%
2 | CC(C)c1noc(N2CC=C(CCOc3nc4ccc(-c5ccc(S(C)(=O)=O)cc5)nc4s3)CC2)n1 [Compound 1035, 3-isopropyl-5-(4-(2-((5-(4-(methylsulfonyl)phenyl)thiazolo[5,4-b]pyridin-2-yl)oxy)ethyl)-5,6-dihydropyridin-1(2H)-yl)-1,2,4-oxadiazole] | 2%
3 | CCCc1cnc(N2CCC([C@@H](C)Oc3nc4ccc(-c5ccc(S(C)(=O)=O)cc5)nc4s3)CC2)nc1 [Compound 1090, (R)-5-(4-(methylsulfonyl)phenyl)-2-(1-(1-(5-propylpyrimidin-2-yl)piperidin-4-yl)ethoxy)thiazolo[5,4-b]pyridine] | 54%
4 | CC(C)c1noc(C2CCN(c3nc4ccc(Nc5ccc(S(C)(=O)=O)c(F)c5)nc4s3)CC2)n1 [Compound 1025, N-(3-fluoro-4-(methylsulfonyl)phenyl)-2-(4-(3-isopropyl-1,2,4-oxadiazol-5-yl)piperidin-1-yl)thiazolo[5,4-b]pyridin-5-amine] | 12%
5 | CC(C)c1noc(N2CCC(C(C)Oc3nc4ccc(-c5ccc(C(=O)N6CCOCC6)cc5)nc4s3)CC2)n1 (stereo not drawn) [Compound 1051, (4-(2-(1-(1-(3-isopropyl-1,2,4-oxadiazol-5-yl)piperidin-4-yl)ethoxy)thiazolo[5,4-b]pyridin-5-yl)phenyl)(morpholino)methanone] | 24%
6 | CC(C)c1noc(N2CCC(C(C)Oc3nc4ccc(-c5cc[n+]([O-])cc5)nc4s3)CC2)n1 (stereo not drawn) [Compound 1098, 4-(2-(1-(1-(3-isopropyl-1,2,4-oxadiazol-5-yl)piperidin-4-yl)ethoxy)thiazolo[5,4-b]pyridin-5-yl)pyridine 1-oxide] | 48%
7 | CC(C)c1noc(N2CCC([C@@H](C)Oc3nc4ccc(-c5ccncc5)nc4s3)CC2)n1 [Compound 1070, (R)-3-isopropyl-5-(4-(1-((5-(pyridin-4-yl)thiazolo[5,4-b]pyridin-2-yl)oxy)ethyl)piperidin-1-yl)-1,2,4-oxadiazole] | 83%
8 | COCCNC(=O)c1ccc(-c2ccc3nc(OC(C)C4CCN(c5nc(C(C)C)no5)CC4)sc3n2)cc1 (stereo not drawn) [Compound 1050, 4-(2-(1-(1-(3-isopropyl-1,2,4-oxadiazol-5-yl)piperidin-4-yl)ethoxy)thiaozlo[5,4-b]pyridin-5-yl)-N-(2-methoxyethyl)benzamide] | 16%
9 | CC(C)c1noc(C2CCN(c3ccc4nc(-c5ccc(S(C)(=O)=O)cc5)sc4n3)CC2)n1 [Compound 1003, 3-isopropyl-5-(1-(2-(4-(methylsulfonyl)phenyl)thiazolo[5,4-b]pyridin-5-yl)piperidin-4-yl)-1,2,4-oxadiazole] | 29%
10 | COCCNC(=O)c1ccc(-c2ccc3nc(N4CCC(c5nc(C(C)C)no5)CC4)sc3n2)cc1 [Compound 1024, 4-(2-(4-(3-isopropyl-1,2,4-oxadiazol-5-yl)piperidin-1-yl)thiazolo[5,4-b]pyridin-5-yl)-N-(2-methoxyethyl)benzamide] | 53%
11 | COCCS(=O)(=O)c1ccc(-c2ccc3nc(OC(C)C4CCN(c5nc(C(C)C)no5)CC4)sc3n2)cc1 (stereo not drawn) [Compound 1067, 3-isopropyl-5-(4-(1-((5-(4-((2-methoxyethyl)sulfonyl)phenyl)thiazolo[5,4-b]pyridin-2-yl)oxy)ethyl)piperidin-1-yl)-1,2,4-oxadiazole] | 36%
12 | C=Cc1ccc(N2CCC(C(C)Oc3nc4ccc(-c5ccc(S(C)(=O)=O)cc5)nc4s3)CC2)nc1 (stereo not drawn) [Compound 1088, 5-(4-(methylsulfonyl)phenyl)-2-(1-(1-(5-vinylpyridin-2-yl)piperidin-4-yl)ethoxy)thiazolo[5,4-b]pyridine] | 60%
13 | CC(C)c1noc(N2CCC([C@H](C)Oc3nc4ccc(-c5ccc(S(C)(=O)=O)cc5)nc4s3)CC2)n1 [Compound 1031, (S)-3-isopropyl-5-(4-(1-((5-(4-(methylsulfonyl)phenyl)thiazolo[5,4-b]pyridin-2-yl)oxy)ethyl)piperidin-1-yl)-1,2,4-oxadiazole] | 76%
14 | CC(C)c1noc(N2CCC(C(C)Oc3nc4ccc(-c5ccc(S(C)(=O)=O)nc5)nc4s3)CC2)n1 (stereo not drawn) [Compound 1069, 3-isopropyl-5-(4-(1-((5-(6-(methylsulfonyl)pyridin-3-yl)thiazolo[5,4-b]pyridin-2-yl)oxy)ethyl)piperidin-1-yl)-1,2,4-oxadiazole] | 80%
15 | CC(C)OC(=O)N1CC=C(CCOc2nc3ccc(-c4ccc(S(C)(=O)=O)cc4)nc3s2)CC1 [Compound 1034, isopropyl 4-(2-((5-(4-(methylsulfonyl)phenyl)thiazolo[5,4-b]pyridin-2-yl)oxy)ethyl)-5,6-dihydropyridine-1(2H)-carboxylate] | 0.3%
16 | CC(C)c1noc(N2CCC(C(C)Oc3nc4ccc(-c5ccc(C#N)cc5)nc4s3)CC2)n1 (stereo not drawn) [Compound 1065, 4-(2-(1-(1-(3-isopropyl-1,2,4-oxadiazol-5-yl)piperidin-4-yl)ethoxy)thiazolo[5,4-b]pyridin-5-yl)benzonitrile] | 60%
17 | CC(C)c1noc(N2CCC([C@@H](C)Oc3nc4ccc(-c5ccc(S(C)(=O)=O)cc5)nc4s3)CC2)n1 [Compound 1032, (R)-3-isopropyl-5-(4-(1-((5-(4-(methylsulfonyl)phenyl)thiazolo[5,4-b]pyridin-2-yl)oxy)ethyl)piperidin-1-yl)-1,2,4-oxadiazole] | 13%

Further lines, results first:

Row | activation at 1 µM | Compound
18 | 22% | Cc1nc(S(C)(=O)=O)ccc1-c1ccc2nc(OC(C)C3CCN(c4nc(C(C)C)no4)CC3)sc2n1 (stereo in doubt) [Compound 1168, 2-((S)-1-(1-(3-isopropyl-1,2,4-oxadiazol-5-yl)piperidin-4-yl)ethoxy)-5-(2-methyl-6-(methylsulfonyl)pyridin-3-yl)thiazolo[5,4-b]pyridine]
19 | 20% | CC(C)c1noc(N2CCC([C@H](C)Oc3nc4ccc(-c5ccc(S(C)(=O)=O)nc5F)nc4s3)CC2)n1 [Compound 1167, 2-((S)-1-(1-(3-isopropyl-1,2,4-oxadiazol-5-yl)piperidin-4-yl)ethoxy)-5-(2-fluoro-6-(methylsulfonyl)pyridin-3-yl)thiazolo[5,4-b]pyridine]
20 | 24% | CC(C)c1noc(N2CCC(C(C)Oc3nc4ccc(-c5ccc(S(C)(=O)=O)cc5F)nc4s3)CC2)n1 (stereo not drawn) [Compound 1111, 5-(4-(1-((5-(2-fluoro-4-(methylsulfonyl)phenyl)thiazolo[5,4-b]pyridin-2-yl)oxy)ethyl)piperidin-1-yl)-3-isopropyl-1,2,4-oxadiazole]
21 | 54% | CCc1noc(N2CCC(C(C)Oc3nc4ccc(-c5ccc(S(C)(=O)=O)nc5)nc4s3)CC2)n1 (stereo not drawn) [Compound 1156, 2-(1-(1-(3-ethyl-1,2,4-oxadiazol-5-yl)piperidin-4-yl)ethoxy)-5-(6-(methylsulfonyl)pyridin-3-yl)thiazolo[5,4-b]pyridine]
22 | 85% | CCCc1cnc(N2CCC([C@H](C)Oc3nc4ccc(-c5ccncc5)nc4s3)CC2)nc1 [Compound 1153, 2-((S)-1-(1-(5-propylpyrimidin-2-yl)piperidin-4-yl)ethoxy)-5-(pyridin-4-yl)thiazolo[5,4-b]pyridine]
23 | 47% | C=C(C)c1cnc(N2CCC(C(C)Oc3nc4ccc(-c5ccc(S(C)(=O)=O)cc5)nc4s3)CC2)nc1 (stereo not drawn) [Compound 1118, 5-(4-(methylsulfonyl)phenyl)-2-(1-(1-(5-(prop-1-en-2-yl)pyrimidin-2-yl)piperidin-4-yl)ethoxy)thiazolo[5,4-b]pyridine]
24 | 57% | CC(C)c1cnc(N2CCC(C(C)Oc3nc4ccc(-c5ccc(S(C)(=O)=O)cc5)nc4s3)CC2)nc1 (stereo not drawn) [Compound 1113, 2-(1-(1-(5-isopropylpyrimidin-2-yl)piperidin-4-yl)ethoxy)-5-(4-(methylsulfonyl)phenyl)thiazolo[5,4-b]pyridine]
25 | 66% | CC(Oc1nc2ccc(-c3ccc(S(C)(=O)=O)nc3)nc2s1)C1CCN(c2cnc(Cl)cn2)CC1 (stereo not drawn) [Compound 1151, 2-(1-(1-(5-chloropyrazin-2-yl)piperidin-4-yl)ethoxy)-5-(6-(methylsulfonyl)pyridin-3-yl)thiazolo[5,4-b]pyridine]
26 | 43% | Cc1cc(S(C)(=O)=O)ccc1-c1ccc2nc(O[C@H](C)C3CCN(c4nc(C(C)C)no4)CC3)sc2n1 [Compound 1169, 2-((R)-1-(1-(3-isopropyl-1,2,4-oxadiazol-5-yl)piperidin-4-yl)ethoxy)-5-(2-methyl-4-(methylsulfonyl)phenyl)thiazolo[5,4-b]pyridine]
27 | 70% | COCc1cnc(N2CCC([C@@H](C)Oc3nc4ccc(-c5ccc(S(C)(=O)=O)nc5)nc4s3)CC2)nc1 [Compound 1165, 2-((R)-1-(1-(5-(methoxymethyl)pyrimidin-2-yl)piperidin-4-yl)ethoxy)-5-(6-(methylsulfonyl)pyridin-3-yl)thiazolo[5,4-b]pyridine]

same assay, conditions: cAMP

Row | pEC50 | Compound
28 | 7.00 to 7.30 | CC(C)c1noc(N2CCC([C@@H](C)Oc3nc4ccc(-c5ccncc5)nc4s3)CC2)n1 [Compound 1070, (R)-3-isopropyl-5-(4-(1-((5-(pyridin-4-yl)thiazolo[5,4-b]pyridin-2-yl)oxy)ethyl)piperidin-1-yl)-1,2,4-oxadiazole]
29 | 6.30 to 7.00 | CCCc1cnc(N2CCC([C@H](C)Oc3nc4ccc(-c5ccncc5)nc4s3)CC2)nc1 [Compound 1153, 2-((S)-1-(1-(5-propylpyrimidin-2-yl)piperidin-4-yl)ethoxy)-5-(pyridin-4-yl)thiazolo[5,4-b]pyridine]
30 | 7.00 to 7.30 | CC(C)c1noc(N2CCC([C@H](C)Oc3nc4ccc(-c5ccc(S(C)(=O)=O)cc5)nc4s3)CC2)n1 [Compound 1031, (S)-3-isopropyl-5-(4-(1-((5-(4-(methylsulfonyl)phenyl)thiazolo[5,4-b]pyridin-2-yl)oxy)ethyl)piperidin-1-yl)-1,2,4-oxadiazole]
